Here are results for eight molecules from PMC6650409, “Modeling the binding of diverse ligands within the Ah receptor ligand binding domain” (Scientific Reports, 2019).

Positions count from the first letter of the chain named. Read-outs that look alike come from different tables or passages of the source.

One experiment concerns the target T1, M334A mutant AhR (Mus musculus, UniProt P30561, M334A).
T1 construct: made in house; host or cells: in vitro, Promega TNT Quick rabbit reticulocyte lysate
T1 sequence (P30561 10-848 M334A): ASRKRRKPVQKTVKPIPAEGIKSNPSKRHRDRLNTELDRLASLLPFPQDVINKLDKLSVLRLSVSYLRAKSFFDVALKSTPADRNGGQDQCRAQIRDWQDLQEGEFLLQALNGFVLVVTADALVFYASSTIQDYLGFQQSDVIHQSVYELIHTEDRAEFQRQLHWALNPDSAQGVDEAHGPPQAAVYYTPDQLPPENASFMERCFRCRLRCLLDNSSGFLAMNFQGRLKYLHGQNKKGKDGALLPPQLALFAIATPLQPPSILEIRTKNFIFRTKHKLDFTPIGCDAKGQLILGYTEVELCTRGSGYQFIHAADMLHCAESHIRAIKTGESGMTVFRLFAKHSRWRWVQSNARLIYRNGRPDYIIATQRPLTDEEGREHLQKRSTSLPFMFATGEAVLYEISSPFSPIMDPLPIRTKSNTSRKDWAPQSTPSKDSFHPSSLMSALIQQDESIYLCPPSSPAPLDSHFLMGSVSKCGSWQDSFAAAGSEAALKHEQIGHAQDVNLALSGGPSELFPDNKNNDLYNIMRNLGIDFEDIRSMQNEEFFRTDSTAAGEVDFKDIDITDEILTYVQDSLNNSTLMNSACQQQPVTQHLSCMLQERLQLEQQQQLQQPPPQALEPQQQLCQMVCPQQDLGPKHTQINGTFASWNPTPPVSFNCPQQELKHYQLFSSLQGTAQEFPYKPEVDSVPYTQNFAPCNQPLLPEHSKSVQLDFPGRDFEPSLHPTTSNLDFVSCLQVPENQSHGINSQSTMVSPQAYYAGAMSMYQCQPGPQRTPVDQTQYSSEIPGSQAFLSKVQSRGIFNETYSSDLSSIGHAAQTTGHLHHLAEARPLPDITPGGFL
Put plainly: [3H]TCDD competitive ligand binding, M334A mutant AhR. The settings on record: for change of relative binding affinity versus wild-type AhR: M334A substitution, in words; for IC50: Table S6, AhR mutant M334A. As for the experimental part:
The mouse AhR (mAhR) and ARNT (mARNT) expression plasmids, mβAhR/pcDNA3 and mβArnt/pcDNA3, have been previously described. Point mutations of mβAhR/pcDNA3 were carried out using the QuikChange Lightning Mutagenesis Kit (Agilent Technologies) and all constructs were verified by sequencing.
(§1) [^3H]TCDD specific binding to wild-type or mutant mAhRs synthesized in vitro using the Promega TNT Quick coupled transcription/translation rabbit reticulocyte lysate kit (Madison, WI) was carried out as previously described. [^3H]TCDD specific binding was determined by subtracting the amount of [^3H]TCDD bound to unprogrammed lysate (nonspecific binding) from the total amount of [^3H]TCDD binding to lysate containing in vitro expressed AhR. The amount of [^3H]TCDD specific binding remaining in the presence of the indicated competitor chemical was expressed as a percent of the total [^3H]TCDD specific binding. The relative binding affinity (IC50) of each chemical was determined from concentration-dependent competitive inhibition curves obtained using [^3H]TCDD and increasing concentrations of each test chemical and the mean IC50 value was determined using three-parameter non-linear regression.

Experiment [1] has as its target T2, mAhR (Mus musculus, UniProt P30561).
T2 construct: made in house; host or cells: in vitro transcription/translation (rabbit reticulocyte lysate)
The experiment can be described thus: biochemical. The conditions noted are these: wild-type mAhR. As to the method: Wild-type and mutant mAhRs and mARNT were synthesized in vitro in the presence of unlabeled L-methionine, the resulting mAhRs and mARNT translation mixtures and MEDGK (25 mM MOPS (3-(N-morpholino)propanesulfonic acid; pH 7.5), 1 mM EDTA, 1 mM dithiothreitol, 10% (v/v) glycerol, 150 mM KCl) were mixed in a 1:1:8 (v/v/v) ratio and incubated with DMSO (1% final concentration) or the indicated concentration of TCDD or test chemical for 2 hours at room temperature. An aliquot of each incubation was mixed with [^32P]-labeled double-stranded oligonucleotide containing the mouse AhR DNA binding site DRE3 (a dioxin responsive element from the upstream region of the murine Cyp1a1 gene[71]) and protein-DNA complexes resolved by gel retardation analysis as previously described in detail. Gels were visualized using a FLA9000 Fujifilm Imager and protein-DNA complexes quantitated with Fujifilm MultiGauge software. For potency measurements, reactions were incubated with increasing concentrations of the test chemical and the chemical concentration producing half maximal AhR:ARNT:DRE complex formation (EC50) determined.
T2 sequence (P30561 10-848): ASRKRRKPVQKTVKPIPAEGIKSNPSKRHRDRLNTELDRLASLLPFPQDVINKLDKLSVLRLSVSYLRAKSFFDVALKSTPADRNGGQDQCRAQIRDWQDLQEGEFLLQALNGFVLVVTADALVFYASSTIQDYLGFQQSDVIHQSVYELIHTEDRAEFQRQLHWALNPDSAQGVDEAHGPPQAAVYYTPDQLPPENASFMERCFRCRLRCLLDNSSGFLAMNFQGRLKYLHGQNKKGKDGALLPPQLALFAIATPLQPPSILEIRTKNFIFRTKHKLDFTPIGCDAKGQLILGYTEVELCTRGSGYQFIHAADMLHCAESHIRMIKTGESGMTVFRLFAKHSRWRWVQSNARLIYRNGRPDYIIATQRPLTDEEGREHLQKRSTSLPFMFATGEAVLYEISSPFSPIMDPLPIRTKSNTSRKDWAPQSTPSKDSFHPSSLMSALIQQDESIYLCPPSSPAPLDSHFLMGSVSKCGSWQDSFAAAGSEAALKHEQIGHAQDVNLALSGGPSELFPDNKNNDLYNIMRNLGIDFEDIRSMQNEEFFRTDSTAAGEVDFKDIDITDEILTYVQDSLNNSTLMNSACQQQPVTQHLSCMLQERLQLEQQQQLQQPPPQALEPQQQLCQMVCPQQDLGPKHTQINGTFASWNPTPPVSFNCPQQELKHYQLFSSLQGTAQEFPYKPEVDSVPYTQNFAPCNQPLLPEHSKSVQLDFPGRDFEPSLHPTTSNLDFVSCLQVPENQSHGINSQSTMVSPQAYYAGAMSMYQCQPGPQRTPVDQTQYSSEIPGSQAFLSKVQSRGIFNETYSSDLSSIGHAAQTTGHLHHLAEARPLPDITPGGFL
T2 sequence (P53762 whole entry partner): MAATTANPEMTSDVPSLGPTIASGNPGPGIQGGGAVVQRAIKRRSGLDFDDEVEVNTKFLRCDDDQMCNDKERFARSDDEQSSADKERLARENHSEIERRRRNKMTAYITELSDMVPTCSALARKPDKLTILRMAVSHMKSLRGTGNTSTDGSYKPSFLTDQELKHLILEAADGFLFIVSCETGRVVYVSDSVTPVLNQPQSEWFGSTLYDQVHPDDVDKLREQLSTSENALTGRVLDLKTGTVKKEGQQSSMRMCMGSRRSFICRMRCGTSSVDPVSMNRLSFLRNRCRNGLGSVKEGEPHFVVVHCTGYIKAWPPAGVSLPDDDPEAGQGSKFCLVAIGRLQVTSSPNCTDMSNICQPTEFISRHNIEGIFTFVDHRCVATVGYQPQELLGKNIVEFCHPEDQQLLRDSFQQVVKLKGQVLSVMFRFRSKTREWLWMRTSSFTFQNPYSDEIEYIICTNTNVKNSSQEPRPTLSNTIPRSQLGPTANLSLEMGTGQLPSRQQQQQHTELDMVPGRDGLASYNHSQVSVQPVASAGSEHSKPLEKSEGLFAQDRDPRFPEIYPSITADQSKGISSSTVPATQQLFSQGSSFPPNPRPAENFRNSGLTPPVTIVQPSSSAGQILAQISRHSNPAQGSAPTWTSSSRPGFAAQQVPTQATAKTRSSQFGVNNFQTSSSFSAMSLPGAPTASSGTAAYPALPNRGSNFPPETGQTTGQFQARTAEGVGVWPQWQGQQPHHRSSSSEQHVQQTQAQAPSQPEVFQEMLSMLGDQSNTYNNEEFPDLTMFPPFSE

In experiment [2] the target is T3, mAhR (Mus musculus, UniProt P30561).
T3 construct: made in house; host or cells: in vitro, Promega TNT Quick coupled transcription/translation rabbit reticulocyte lysate
T3 sequence (P30561 10-848): T1 sequence (P30561 10-848 M334A) with A325M
The experiment can be described thus: biochemical. In kind it is binding. As for the experimental part: as §1

Where [3] appears, read: Table S1, read-out: AhR DNAB -LogEC50 (converted).
The mark [4] stands for this setting: Table S1, wild-type mAhR, mean of nine independent reactions, read-out: AhR LB IC50.
Where [5] appears, read: competition with [3H]TCDD, wild-type mAhR, values in text, read-out: relative AhR ligand binding affinity (IC50).
Where [6] appears, read: gel retardation, values in text, read-out: relative potency to stimulate AhR DNA binding in vitro (EC50).
The mark [7] stands for this setting: Table S1, mean of nine independent reactions, read-out: AhR DNAB EC50.

Consider `Cc1ccc2cc3c(ccc4ccccc43)c3c2c1CC3` [3MC, 3-methylcholanthrene], for which the “change of relative binding affinity versus wild-type AhR” value on M334A mutant AhR is “decreased”. Also, the IC50 on M334A mutant AhR came out at 34.7 nM; on mAhR [2] (setting [4]) it was 1.58 nM; on mAhR [2] (setting [5]), 1.6 nM. In addition, the EC50 on mAhR [1] (setting [3]) is 6.03 nM.
For `O=c1cc(-c2ccccc2)oc2ccc3ccccc3c12` [BNF], the EC50 at mAhR [1] (setting [6]) turned out to be 138 nM. For the same molecule, the IC50 at mAhR [2] (setting [4]) was determined as 7.24 nM; on mAhR [2] (setting [5]), 7.2 nM.
Turning to `c1ccc2c(c1)cc1ccc3cccc4ccc2c1c34` [BaP, Benzo(a)pyrene], the EC50 on mAhR [1] (setting [7]) turned out to be 38.9 nM; at mAhR [1] (setting [6]), 39 nM. Besides, on mAhR [2] (setting [5]), the IC50 stood at 617 nM.
Turning to `c1ccc2c(c1)ccc1cc3c(ccc4ccccc43)cc12` [DBA, dibenz(a,h)anthracene], the “change of relative binding affinity versus wild-type AhR” value on M334A mutant AhR is listed as “no significant effect”. Moreover, the IC50 at M334A mutant AhR came out at 7.33 nM; at mAhR [2] (setting [5]) it was 7.6 nM. The figures for the EC50 on mAhR [1] (setting [7]) and on mAhR [1] (setting [3]) were 4.02 nM and 3.98 nM, respectively.
In the case of `O=Cc1c2[nH]c3ccccc3c2cc2[nH]c3ccccc3c12` [FICZ, 6-formylindolo[3,2-b]carbazole], on mAhR [1] (setting [6]), the EC50 came out at 4.25 nM. Moreover, the IC50 on mAhR [2] (setting [4]) came out at 1.02 nM; at mAhR [2] (setting [5]) it was 1 nM.
For the molecule `Clc1ccc(-c2cc(Cl)c(Cl)c(Cl)c2)cc1Cl` [PCB126, 3,3′4,4′5-pentachlorobiphenyl], the “change of relative binding affinity versus wild-type AhR” value on M334A mutant AhR was “significantly reduced”. The results for the IC50 on M334A mutant AhR, at mAhR [2] (setting [4]) and on mAhR [2] (setting [5]) were 74.1 nM, 5.89 nM and 5.9 nM, respectively. In addition, the results for the EC50 on mAhR [1] (setting [7]) and at mAhR [1] (setting [6]) were 6.51 nM and 6.5 nM, respectively.
Regarding `Clc1cc2c(cc1Cl)Oc1cc(Cl)c(Cl)cc1O2` [TCDD, 2,3,7,8-tetrachlorodibenzo-p-dioxin], the EC50 on mAhR [1] (AhR DNAB EC50, Table S1, mean of nine independent reactions) was 7.53 nM; on mAhR [1] (relative potency to stimulate AhR DNA binding in vitro (EC50), gel retardation, values in text), 7.5 nM. The IC50 on mAhR [2] and on mAhR [2] (setting [5]) was 1 nM throughout.
`Clc1cc2oc3cc(Cl)c(Cl)cc3c2cc1Cl` [TCDF, 2,3,7,8-tetrachlorodibenzofuran]: the EC50 at mAhR [1] (setting [7]) was determined as 4.55 nM; at mAhR [1] (setting [6]) it was 4.5 nM. The IC50 is 20.1 nM at mAhR [2] (setting [4]) and 20 nM on mAhR [2] (Table S1, wild-type mAhR, read-out: AhR LB -LogIC50 (converted)).
